From ChEMBL document CHEMBL1201862, “PubChem BioAssay data set” (2004)
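Dose response: 5 concentrations. Exposure: 48 h. Format: 96-well plates. Endpoint: linear interpolation; highest concentration if not reached. GI50: concentration for 50% inhibition of growth.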 Active and inactive are the calls of the source. Cut-off read from the data, not from the text of the source: active = GI50 up to about 1.1 µM and inactive = higher.

How the values were obtained:
Test in all cases: growth of human tumour cells (NCI), 48 h
[1] = system: 786-0
[2] = system: A498
[3] = system: A549
[4] = system: CCRF-CEM
[5] = system: HCT-15
[6] = system: K562
[7] = system: KM12
[8] = system: MCF7
[9] = system: MDA-MB-435
[10] = system: MOLT-4
[11] = system: NCI-H23
[12] = system: OVCAR-3
[13] = system: PC-3
[14] = system: SK-OV-3
[15] = system: SNB-75
[16] = system: SW-620
[17] = system: UACC-257
[18] = system: UO-31
[19] = system: ACHN
[20] = system: HOP-92

Row | SMILES | GI50 [1] | GI50 [2] | GI50 [3] | GI50 [4] | GI50 [5] [µM] | GI50 [6] | GI50 [7] | GI50 [8] | GI50 [9] | GI50 [10] | GI50 [11] | GI50 [12] | GI50 [13] | GI50 [14] | GI50 [15] | GI50 [16] | GI50 [17] | GI50 [18] | GI50 [19] | GI50 [20]
1 | COC(=O)/N=[N+](\[O-])C(c1ccccc1)c1ccccc1 | > 100 µM (inactive) | > 100 µM (inactive) | 33.2 µM (inactive) | 82 µM (inactive) | 89.7 | 47.8 µM (inactive) | > 100 µM (inactive) | > 100 µM (inactive) | 31 µM (inactive) | > 100 µM (inactive) | 29.1 µM (inactive) | 98.9 µM (inactive) | 60.4 µM (inactive) | > 100 µM (inactive) | 82.4 µM (inactive) | > 100 µM (inactive) | 28.4 µM (inactive) | 13.4 µM (inactive) |  | 
2 | CC1CC(=O)Nc2nc3ccccc3n21 (stereo unspecified) | > 100 µM (inactive) | > 100 µM (inactive) | > 100 µM (inactive) | > 100 µM (inactive) | > 100 | > 100 µM (inactive) | > 100 µM (inactive) | > 100 µM (inactive) | > 100 µM (inactive) | > 100 µM (inactive) | > 100 µM (inactive) | > 100 µM (inactive) | > 100 µM (inactive) | > 100 µM (inactive) |  | > 100 µM (inactive) | > 100 µM (inactive) | > 100 µM (inactive) | > 100 µM (inactive) | > 100 µM (inactive)
3 | CN1C/C(=C\c2cccs2)C(=O)/C(=C/c2cccs2)C1 | 17.7 µM (inactive) | 19.7 µM (inactive) | 21.9 µM (inactive) | 5.27 µM (inactive) | 27.2 | 25.1 µM (inactive) | 21 µM (inactive) | 15.7 µM (inactive) | 16 µM (inactive) | 6.59 µM (inactive) | 31.2 µM (inactive) | 29.3 µM (inactive) | 19.2 µM (inactive) | 33.2 µM (inactive) |  | 40.7 µM (inactive) | 30 µM (inactive) | 18.7 µM (inactive) | 25.9 µM (inactive) | 2.51 µM (inactive)
4 | Nc1nc(Cl)cc(OCC2(CO)CC=CC2)n1 | > 100 µM (inactive) | 90.6 µM (inactive) | > 100 µM (inactive) | > 100 µM (inactive) | > 100 | 95.7 µM (inactive) |  | > 100 µM (inactive) | > 100 µM (inactive) | > 100 µM (inactive) | > 100 µM (inactive) | > 100 µM (inactive) | > 100 µM (inactive) |  | 27.1 µM (inactive) | > 100 µM (inactive) | > 100 µM (inactive) |  | > 100 µM (inactive) | > 100 µM (inactive)
5 | Cn1nc(C(=O)N2CC(CCl)c3c2cc([N+](=O)[O-])c2ccccc32)cc1NC(=O)Nc1cc(C(=O)N2CC(CCl)c3c2cc([N+](=O)[O-])c2ccccc32)nn1C (stereo unspecified) | 79.6 µM (inactive) | > 100 µM (inactive) | > 100 µM (inactive) |  | > 100 | > 100 µM (inactive) | > 100 µM (inactive) | > 100 µM (inactive) | > 100 µM (inactive) | > 100 µM (inactive) | > 100 µM (inactive) | > 100 µM (inactive) | > 100 µM (inactive) | > 100 µM (inactive) | > 100 µM (inactive) |  | > 100 µM (inactive) | > 100 µM (inactive) | > 100 µM (inactive) | > 100 µM (inactive)
6 | CNC(=S)/N=c1/sc(NC)nc2sc3c(c12)CCCC3 | 38.1 µM (inactive) | > 100 µM (inactive) |  | > 100 µM (inactive) | > 100 | > 100 µM (inactive) | > 100 µM (inactive) | > 100 µM (inactive) | > 100 µM (inactive) | > 100 µM (inactive) | > 100 µM (inactive) | > 100 µM (inactive) | > 100 µM (inactive) | 64.6 µM (inactive) |  | > 100 µM (inactive) | > 100 µM (inactive) | > 100 µM (inactive) | > 100 µM (inactive) | 37.3 µM (inactive)
7 | Cc1cc(NCC2CC/C(=C\C=C\c3ccccc3)C2=O)no1 (stereo unspecified) | > 100 µM (inactive) | 51.8 µM (inactive) | > 100 µM (inactive) | > 100 µM (inactive) | 67.3 | 92.7 µM (inactive) | 41.8 µM (inactive) | 63.4 µM (inactive) | > 100 µM (inactive) | 49.3 µM (inactive) | > 100 µM (inactive) | > 100 µM (inactive) | > 100 µM (inactive) | > 100 µM (inactive) |  | > 100 µM (inactive) | 57.8 µM (inactive) | 51.3 µM (inactive) | 93.8 µM (inactive) | 78.5 µM (inactive)
8 | CN(C)CCCNc1ccc2nnn3c4ccc(OC(=O)c5ccc([N+](=O)[O-])cc5)cc4c(=O)c1c23 | 1.52 µM (inactive) | 16.6 µM (inactive) | 1.28 µM (inactive) | 0.849 µM (active) | 2.72 | 2.86 µM (inactive) | 5.64 µM (inactive) | 2.27 µM (inactive) | 5.7 µM (inactive) | 0.408 µM (active) | 6.73 µM (inactive) | 10.9 µM (inactive) | 2.74 µM (inactive) | 6.98 µM (inactive) |  | 2.32 µM (inactive) | 11.7 µM (inactive) | 4.67 µM (inactive) | 1.5 µM (inactive) | 10.6 µM (inactive)
9 | COc1cc2c(cc1OC)C13CCN4CC5=CCOC(CC(=O)O)C(C5CC41)C3N2 (stereo unspecified) | > 100 µM (inactive) | > 100 µM (inactive) | > 100 µM (inactive) | 61.1 µM (inactive) | > 100 | > 100 µM (inactive) | > 100 µM (inactive) | > 100 µM (inactive) | > 100 µM (inactive) | > 100 µM (inactive) | > 100 µM (inactive) | > 100 µM (inactive) | > 100 µM (inactive) | > 100 µM (inactive) |  | > 100 µM (inactive) | > 100 µM (inactive) | > 100 µM (inactive) | > 100 µM (inactive) | 78.3 µM (inactive)
10 | COc1ccc2cc1Oc1ccc(cc1)C(Sc1ccccc1)CCOC(=O)CC2 (stereo unspecified) | > 100 µM (inactive) | > 100 µM (inactive) | > 100 µM (inactive) | > 100 µM (inactive) | 18.1 | 82.8 µM (inactive) | > 100 µM (inactive) | > 100 µM (inactive) | > 100 µM (inactive) | > 100 µM (inactive) | > 100 µM (inactive) | > 100 µM (inactive) | > 100 µM (inactive) | > 100 µM (inactive) | > 100 µM (inactive) | > 100 µM (inactive) | > 100 µM (inactive) | > 100 µM (inactive) | > 100 µM (inactive) | 
11 | C/C=C1\C(=O)O[C@H]2C/C(C)=C/CC/C(C)=C/CC[C@@]3(C)O[C@@H]3C[C@@H]12 | > 100 µM (inactive) | > 100 µM (inactive) | > 100 µM (inactive) | 35 µM (inactive) | 54.3 | > 100 µM (inactive) | > 100 µM (inactive) | > 100 µM (inactive) | > 100 µM (inactive) | 95.1 µM (inactive) |  | > 100 µM (inactive) | > 100 µM (inactive) | > 100 µM (inactive) | > 100 µM (inactive) | > 100 µM (inactive) | > 100 µM (inactive) | > 100 µM (inactive) | > 100 µM (inactive) | 
12 | C/C(CC1SCCCS1)=C(/C)CC1SCCCS1 | > 100 µM (inactive) | > 100 µM (inactive) | > 100 µM (inactive) | > 100 µM (inactive) | > 100 | > 100 µM (inactive) | > 100 µM (inactive) | > 100 µM (inactive) | > 100 µM (inactive) | > 100 µM (inactive) | > 100 µM (inactive) | > 100 µM (inactive) | > 100 µM (inactive) |  | > 100 µM (inactive) | > 100 µM (inactive) |  | > 100 µM (inactive) | > 100 µM (inactive) | 
13 | CC(=O)OCc1cccc(O)c1C(=O)CCC=C(C)C | > 100 µM (inactive) | > 100 µM (inactive) | > 100 µM (inactive) | 74.6 µM (inactive) | > 100 | > 100 µM (inactive) | > 100 µM (inactive) | > 100 µM (inactive) | > 100 µM (inactive) | > 100 µM (inactive) | > 100 µM (inactive) | > 100 µM (inactive) | > 100 µM (inactive) | > 100 µM (inactive) |  | > 100 µM (inactive) | > 100 µM (inactive) | > 100 µM (inactive) | > 100 µM (inactive) | > 100 µM (inactive)
14 | C#C[C@]1(O)CC[C@H]2[C@@H]3CCC4=C/C(=N/CCOC(=O)c5cccc6c(=O)c7ccccc7[nH]c56)CC[C@@H]4[C@H]3CC[C@@]21C | 42.4 µM (inactive) | 58.6 µM (inactive) | 41.7 µM (inactive) | 35.7 µM (inactive) | 45 | 36.4 µM (inactive) | 30.6 µM (inactive) | 26.1 µM (inactive) | 31.8 µM (inactive) | 25.9 µM (inactive) | 32.7 µM (inactive) | 33.5 µM (inactive) | 18.4 µM (inactive) | 51.5 µM (inactive) |  | 45.2 µM (inactive) | 43.2 µM (inactive) | 37.8 µM (inactive) | 40.4 µM (inactive) | 23.1 µM (inactive)
15 | O=C1CC2(CCN(Cc3ccccc3)CC2)C(=O)N1N1CCCCC1 | > 100 µM (inactive) | > 100 µM (inactive) | > 100 µM (inactive) |  | > 100 | > 100 µM (inactive) | > 100 µM (inactive) | > 100 µM (inactive) | > 100 µM (inactive) | > 100 µM (inactive) | > 100 µM (inactive) | > 100 µM (inactive) | > 100 µM (inactive) | > 100 µM (inactive) | > 100 µM (inactive) | > 100 µM (inactive) | > 100 µM (inactive) | > 100 µM (inactive) | > 100 µM (inactive) | 
